system: Phakopsora pachyrhizi; assay: Phakopsora pachyrhizi Test in Soybean (preventive spray); assay type: in vivo; settings: preventive spray on Soybean plants, inoculated one day after treatment, disease severity vs untreated control
Description: Example 7: Phakopsora pachyrhizi Test in Soybean Compounds were dissolved in 2% dimethyl sulfoxide/acetone and then mixed with water containing an emulsifier to a calibrated spray volume of 50 mL. This 50 mL spray solution was poured into spray bottles for further applications. To test the preventive activity of compounds, healthy young Soybean plants, raised in the greenhouse, were sprayed with the active compound preparation at the stated application rates inside the spray cabinets using hollow cone nozzles. One day after treatment, the plants were inoculated with a spore suspension containing 2×10^5Phakopsora pachyrhizi conidia. The inoculated plants were then kept in a greenhouse chamber at 22-24° C. temperature and 80-90% relative humidity for disease expression. A visual assessment of the compound's performance was carried out by rating the disease severity (0-100% scale) on treated plants 3, 7, 10 and 15 days after application. Efficacy (% control) of the compounds was calculated by comparing the disease rating in the treatment with the one of the untreated control. The sprayed plants were also assessed for plant compatibility by recording symptoms like necrosis, chlorosis and stunting.

SMILES	pest or weed control at 500 ppm
O=C(COc1ccc(C(F)(F)F)cc1)c1ccc(-c2noc(C(F)(F)F)n2)cc1 [Compound 36, 1-(4-(5-(trifluoromethyl)-1,2,4-oxadiazol-3-yl)phenyl)-2-(4-(trifluoromethyl)phenoxy)ethan-1-one]	≥ 70%
O=C(COc1cccc(F)c1)c1ccc(-c2noc(C(F)(F)F)n2)cc1 [Compound 3, 2-(3-fluorophenoxy)-1-(4-(5-(trifluoromethyl)-1,2,4-oxadiazol-3-yl)phenyl)ethan-1-one]	≥ 70%
O=C(C[S+]([O-])c1ccccc1)c1ccc(-c2noc(C(F)(F)F)n2)cc1 (stereo not drawn) [Compound 84, 2-(phenylsulfinyl)-1-(4-(5-(trifluoromethyl)-1,2,4-oxadiazol-3-yl)phenyl)ethan-1-one]	≥ 70%
Cc1ccc(C(F)(F)F)c(OCC(=O)c2ccc(-c3noc(C(F)(F)F)n3)cc2)n1 [Compound 45, 2-((6-methyl-3-(trifluoromethyl)pyridin-2-yl)oxy)-1-(4-(5-(trifluoromethyl)-1,2,4-oxadiazol-3-yl)phenyl)ethan-1-one]	≥ 70%
COc1ccccc1OCC(=O)c1ccc(-c2noc(C(F)(F)F)n2)cc1 [Compound 11, 2-(2-methoxyphenoxy)-1-(4-(5-(trifluoromethyl)-1,2,4-oxadiazol-3-yl)phenyl)ethan-1-one]	≥ 70%
O=C(COc1cc(F)cc(Cl)c1)c1ccc(-c2noc(C(F)(F)F)n2)cc1 [Compound 42, 2-(3-chloro-5-fluorophenoxy)-1-(4-(5-(trifluoromethyl)-1,2,4-oxadiazol-3-yl)phenyl)ethan-1-one]	≥ 70%
O=C(CSc1cccc(F)c1)c1ccc(-c2noc(C(F)(F)F)n2)cc1 [Compound 64, 2-((3-fluorophenyl)thio)-1-(4-(5-(trifluoromethyl)-1,2,4-oxadiazol-3-yl)phenyl)ethan-1-one]	≥ 70%
O=C(CS(=O)(=O)c1cccc(C(F)(F)F)c1)c1ccc(-c2noc(C(F)(F)F)n2)cc1 [Compound 103, 1-(4-(5-(trifluoromethyl)-1,2,4-oxadiazol-3-yl)phenyl)-2-((3-(trifluoromethyl)phenyl)sulfonyl)ethan-1-one]	≥ 70%
O=C(COc1ccc(Br)c(F)c1)c1ccc(-c2noc(C(F)(F)F)n2)cc1 [Compound 12, 2-(4-bromo-3-fluorophenoxy)-1-(4-(5-(trifluoromethyl)-1,2,4-oxadiazol-3-yl)phenyl)ethan-1-one]	≥ 70%
O=C(CSc1ccccc1)c1ccc(-c2noc(C(F)(F)F)n2)cc1 [Compound 60, 2-(phenylthio)-1-(4-(5-(trifluoromethyl)-1,2,4-oxadiazol-3-yl)phenyl)ethan-1-one]	≥ 70%
O=C(COc1ccc(F)cc1)c1ccc(-c2noc(C(F)(F)F)n2)cc1 [Compound 4, 2-(4-fluorophenoxy)-1-(4-(5-(trifluoromethyl)-1,2,4-oxadiazol-3-yl)phenyl)ethan-1-one]	≥ 70%
CC(c1ccccc1)[S+]([O-])CC(=O)c1ccc(-c2noc(C(F)(F)F)n2)cc1 (stereo not drawn) [Compound 82, 2-((1-phenylethyl)sulfinyl)-1-(4-(5-(trifluoromethyl)-1,2,4-oxadiazol-3-yl)phenyl)ethan-1-one]	≥ 70%
CC(SCC(=O)c1ccc(-c2noc(C(F)(F)F)n2)cc1)c1ccccc1 (stereo not drawn) [Compound 58, 2-((1-phenylethyl)thio)-1-(4-(5-(trifluoromethyl)-1,2,4-oxadiazol-3-yl)phenyl)ethan-1-one]	≥ 70%
O=C(CSc1ccc(Cl)c(Cl)c1)c1ccc(-c2noc(C(F)(F)F)n2)cc1 [Compound 52, 2-((3,4-dichlorophenyl)thio)-1-(4-(5-(trifluoromethyl)-1,2,4-oxadiazol-3-yl)phenyl)ethan-1-one]	≥ 70%
O=C(CSc1c(Cl)cccc1Cl)c1ccc(-c2noc(C(F)(F)F)n2)cc1 [Compound 13, 2-((2,6-dichlorophenyl)thio)-1-(4-(5-(trifluoromethyl)-1,2,4-oxadiazol-3-yl)phenyl)ethan-1-one]	≥ 70%
Cc1ccc(OCC(=O)c2ccc(-c3noc(C(F)(F)F)n3)cc2)cc1 [Compound 34, 2-(p-tolyloxy)-1-(4-(5-(trifluoromethyl)-1,2,4-oxadiazol-3-yl)phenyl)ethan-1-one]	≥ 70%
O=C(CSC1CCCC1)c1ccc(-c2noc(C(F)(F)F)n2)cc1 [Compound 24, 2-(cyclopentylthio)-1-(4-(5-(trifluoromethyl)-1,2,4-oxadiazol-3-yl)phenyl)ethan-1-one]	≥ 70%
O=C(COc1ccc(Cl)c(C(F)(F)F)c1)c1ccc(-c2noc(C(F)(F)F)n2)cc1 [Compound 9, 2-(4-chloro-3-(trifluoromethyl)phenoxy)-1-(4-(5-(trifluoromethyl)-1,2,4-oxadiazol-3-yl)phenyl)ethan-1-one]	≥ 70%
O=C(C[S+]([O-])c1cccc(F)c1)c1ccc(-c2noc(C(F)(F)F)n2)cc1 (stereo not drawn) [Compound 87, 2-((3-fluorophenyl)sulfinyl)-1-(4-(5-(trifluoromethyl)-1,2,4-oxadiazol-3-yl)phenyl)ethan-1-one]	≥ 70%
Cc1csc(SCC(=O)c2ccc(-c3noc(C(F)(F)F)n3)cc2)n1 [Compound 26, 2-((4-methylthiazol-2-yl)thio)-1-(4-(5-(trifluoromethyl)-1,2,4-oxadiazol-3-yl)phenyl)ethan-1-one]	≥ 70%
O=C(C[S+]([O-])c1ccccc1F)c1ccc(-c2noc(C(F)(F)F)n2)cc1 (stereo not drawn) [Compound 88, 2-((2-fluorophenyl)sulfinyl)-1-(4-(5-(trifluoromethyl)-1,2,4-oxadiazol-3-yl)phenyl)ethan-1-one]	≥ 70%
O=C(CSCc1ccccc1)c1ccc(-c2noc(C(F)(F)F)n2)cc1 [Compound 56, 2-(benzylthio)-1-(4-(5-(trifluoromethyl)-1,2,4-oxadiazol-3-yl)phenyl)ethan-1-one]	≥ 70%
O=C(COc1ccc(Br)cc1)c1ccc(-c2noc(C(F)(F)F)n2)cc1 [Compound 5, 2-(4-bromophenoxy)-1-(4-(5-(trifluoromethyl)-1,2,4-oxadiazol-3-yl)phenyl)ethan-1-one]	≥ 70%
O=C(CSc1nc2ccccc2o1)c1ccc(-c2noc(C(F)(F)F)n2)cc1 [Compound 25, 2-(benzo[d]oxazol-2-ylthio)-1-(4-(5-(trifluoromethyl)-1,2,4-oxadiazol-3-yl)phenyl)ethan-1-one]	≥ 70%

system: Pyricularia oryzae; assay: microbe, parasite or virus in culture; assay type: cell-based; settings: 168 h, read-out: control

SMILES	inhibition of growth at 300 ppm
CC(C)(C)SCC(=O)c1ccc(-c2noc(C(F)(F)F)n2)cc1 [Compound 70, 2-(tert-butylthio)-1-(4-(5-(trifluoromethyl)-1,2,4-oxadiazol-3-yl)phenyl)ethan-1-one]	≥ 70%
Nc1cc[n+](CC(=O)c2ccc(-c3noc(C(F)(F)F)n3)cc2)cc1 [Compound 148, 4-amino-1-(2-oxo-2-(4-(5-(trifluoromethyl)-1,2,4-oxadiazol-3-yl)phenyl)ethyl)pyridin-1-ium bromide]	≥ 70%
O=C(CSc1ccc(C(F)(F)F)cc1)c1ccc(-c2noc(C(F)(F)F)n2)cc1 [Compound 71, 1-(4-(5-(trifluoromethyl)-1,2,4-oxadiazol-3-yl)phenyl)-2-((4-(trifluoromethyl)phenyl)thio)ethan-1-one]	≥ 70%
